# Reference: publication PMC3547732 (Chemistry Central Journal, 2012)
# Tests used:
# [1] = tested on: Triton induced hyperlipidemia; assay: Hypolipidemic activity in Triton induced hyperlipidemia in rats; assay type: in vivo, male Wistar rats; settings: Triton treated rats, 30 mg/kg oral gavage 2 h before Triton i.p., plasma 18 h after triton injection
# Protocol: The rats were housed under optimal laboratory conditions, maintained on 12 h light and dark cycle and had free access to food (Hindustan Lever Products, Kolkata, India) and water. Animals were acclimatized to laboratory conditions before the tests. All experiments were carried out between 0900 and 1700 h. The experimental protocols were approved by the Institutional Animal Ethics Committee and conducted according to the Indian National Science Academy guidelines for the use and care of animals. Fifty five male Wistar rats were divided into the following 11 groups containing 5 animals in each group: Atrovastain and various solvates were freshly suspended in 0.5% carboxymethyl cellulose and administered by oral gavage. Two hours later, all groups except control animals received intraperitonial injection of Triton (100 mg/kg). Eighteen hours after triton injection, blood was collected from tail vein. Plasma was separated and stored at −20°C for further biochemical analysis. Total cholesterol and triglyceride were analyzed in plasma samples using diagnostic kits as per manufacturer instructions.
# [2] = Enthalpy of solution by microreaction calorimetry; assay type: physicochemical; settings: 25°C; for Molar enthalpy of solution in its own solvent, Solvates (ΔsolH^2): each solvate in its own solvent of solvation
# Protocol: Molar enthalpy of solution (ΔHsol) was determined in phosphate buffer (pH8) as well as in methanol.
# In order to determine the enthalpy associated with the solvation process the enthalpy of solution of a particular solvate was determined in its own solvent.
# (3) ΔsolyH=ΔsolH^1−ΔsolH^2
# Calorimetric studies were performed on Microreaction calorimeter obtained from Thermal Hazards Technology, UK. Two different solvents, viz, the phosphate buffer (pH 2) and methanol were used to determine the enthalpy of solution and the measurements were performed at 25°C. The size of sample used in this study ranged from 10 to 20 mg and was weighed (Sartorius Model CP225D) into a cylindrical glass tube covered with parafilm on one side. This cylindrical tube was submerged into the ampoule containing the solvent. A plunger with a cap was put from the open end of the tube. The same solvent was put into the reference ampoule. These were put into the sample and reference holes until both rest on the base of the holes. The apparatus was maintained at constant temperature at 25°C (±0.0005°C). The parafilm was shattered mechanically by means of plunger.
# [3] = Enthalpy of solution by microreaction calorimetry; assay type: physicochemical; settings: 25°C
# [4] = Desolvation of solvates by DSC and TGA; assay type: physicochemical; settings: for Desolvation temperature: DSC desolvation endotherm maximum, 10°C/min; for Enthalpy of desolvation, ΔdesolvH calculated from equation 4: calculated from enthalpies of solution, heat capacities and enthalpy of vapourization; for Enthalpy of desolvation per mole of solvent (binding energy): equation 1 from DSC desolvation enthalpy and TGA mass loss
# Source text: The desolvation temperatures account for the stability of solvates as the desolvation temperature in all these forms is much higher than the boiling point of the corresponding solvent. The quantitative estimate of the stability of these solvates is established by determining the binding energy for the solvents in all the solvates using equation 1 where the percent mass loss measured over the TG desolvation step of each solvate (ΔmS%) was related to the enthalpy change calculated over the corresponding DSC desolvation endotherm (ΔHSexp).
# (1) ΔHS=ΔHSexp×100Δms%×Ms
# where ΔHS (J mol^-1) is the enthalpy of desolvation (or binding energy) per mole of the bound solvent, MS is the molecular mass of the solvent.
# (4) ΔdesolyH=ΔsolnH^2−ΔsolnH^1−ΔCPTdesoly−25+1/2ΔyapH
# . A mass between 2–8 mg was taken into the aluminium pan, covered with lid and sealed. DSC curves were obtained under a nitrogen purge of 50 mL per minute at a heating rate of 10°C per minute with the temperature range from 50-350°C.
# Loss of solvent from the samples was characterized by TGA obtained by TA Instruments-Waters LLC, USA. TGA traces were recorded at heating rates of 10°C per minute under a nitrogen purge of 50 ml per minute. Samples with masses between 1–10 mg were analyzed using platinum pan. Mass loss (%) was calculated based on the mass of the original sample.
SMILES,Total Cholesterol [1] [mg/dL],Triglyceride [1] [mg/dL],"Molar enthalpy of solution in its own solvent, Solvates (ΔsolH^2) [2] [kcal/mol]","Molar enthalpy of solution, Methanol ΔsolH (methanol) [2] [kcal/mol]","Molar enthalpy of solution, Phosphate buffer (pH8) ΔsolH [3] [kJ mol^-1]",Desolvation temperature ([4]; listed as Solvate-VI) [°C],Desolvation temperature ([4]; listed as solvate-VI) [°C],"Enthalpy of desolvation, ΔdesolvH calculated from equation 4 [4] [kcal/mol]",Enthalpy of desolvation per mole of solvent (binding energy) [4] [kcal/mol],"Enthalpy of desolvation, ΔdesolvH from DSC [4] [kcal/mol]",Desolvation temperature [4] [°C]
CC(C)=O.CC(C)=O.CC(C)c1c(C(=O)Nc2ccccc2)c(-c2ccccc2)c(-c2ccc(F)cc2)n1CC[C@@H](O)C[C@@H](O)CC(=O)[O-].CC(C)c1c(C(=O)Nc2ccccc2)c(-c2ccccc2)c(-c2ccc(F)cc2)n1CC[C@@H](O)C[C@@H](O)CC(=O)[O-].CC(C)c1c(C(=O)Nc2ccccc2)c(-c2ccccc2)c(-c2ccc(F)cc2)n1CC[C@@H](O)C[C@@H](O)CC(=O)[O-].CC(C)c1c(C(=O)Nc2ccccc2)c(-c2ccccc2)c(-c2ccc(F)cc2)n1CC[C@@H](O)C[C@@H](O)CC(=O)[O-].CCO.[Ca+2].[Ca+2] [Solvate VI],197,174,-2.581,1.22,8.35,72.53,72.5,12.43,15.69,13.56,
CC(C)c1c(C(=O)Nc2ccccc2)c(-c2ccccc2)c(-c2ccc(F)cc2)n1CC[C@@H](O)C[C@@H](O)CC(=O)[O-].CC(C)c1c(C(=O)Nc2ccccc2)c(-c2ccccc2)c(-c2ccc(F)cc2)n1CC[C@@H](O)C[C@@H](O)CC(=O)[O-].CO.[Ca+2] [Solvate V],198,170,0.507,0.507,3.85,,,6.381,13.12,6.279,70.15
